Data taken from US5561111A, “Stable glutamine derivatives for oral and intravenous rehydration and nutrition therapy” (The University of Virginia Patent Foundation, priority 1994, dated 1996).
Peptide text beside a SMILES is read from it.

Test system: rabbit ileal mucosa
Assay: Intestinal sodium cotransport in rabbit ileal mucosa mounted in Ussing chambers
Experimental: To study intestinal sodium cotransport using the compounds of the present invention, Ala-Glu and Ala-Gln were tested according to the method of Lima et al, Brazilian J. Med Biol. Res., 25:637-640 (1992) for measuring intestinal sodium cotransport in rabbit ileal mucosa mounted in Ussing chambers. […] As shown the dose response increases dramatically in a non-linear fashion. […] The pD2 value is related to the ED50 in accordance with the following formula: -log ED50 =pD2.

C[C@H](N)C(=O)N[C@@H](CCC(N)=O)C(=O)O [Ala-Gln, alanyl-glutamine] (H-Ala-Gln-OH)
maximum increase (Emax) in Isc: 150 μA/cm^2
